Patent publication US6495557B1, “Condensed thienopyrimidines with phosphodiesterase-v inhibiting action” (Merck Patent Gesellschaft mit beschraenkter Haftung, priority 1998, dated 2002)

Row | melting point [°C] | Compound
1 | 203 to 204 | COC(=O)c1ccc(-c2nc(NCc3ccc(OC)c(Cl)c3)c3c(n2)sc2ccccc23)cc1 [Example 3, methyl 4-[4-(3-chloro-4-methoxybenzylamino)-[1]benzothieno[2,3-d]pyrimidin-2-yl]benzoate]
2 | 218 | COc1ccc(CNc2nc(CCC(=O)O)nc3sc4ccccc4c23)cc1Cl [Example 2, 3-[4-(3-chloro-4-methoxybenzylamino)benzothieno[2,3-d]pyrimidin-2-yl]propionic acid]
